Reference: ChEMBL document CHEMBL5236579, “Hydrophobicity Determines the Bacterial Killing Rate of α-Helical Antimicrobial Peptides and Influences the Bacterial Resistance Development” (J Med Chem, 2022)
Converted amounts (≈) assume the structure as drawn. The source made the active and inactive calls. The calls are words filed in the database; no cut-off is given here. Where a SMILES comes first, the peptide text is derived from it.

Experiments:
Escherichia coli [1] = test: Antimicrobial activity against Escherichia coli ATCC27622 by two fold broth microdilution method; assay type: functional
Staphylococcus aureus [2] = test: Antimicrobial activity against clinical isolates Staphylococcus aureus by two fold broth microdilution method; assay type: functional
Vibrio parahaemolyticus [3] = test: Induction of morphological changes in Vibrio parahaemolyticus ATCC17802 assessed as cellular inclusion leakage incubated at 5 times MIC and measured after 180 mins by scanning electron microscopy based analysis; assay type: functional, organism-based
Bacillus cereus = test: Antimicrobial activity against clinical isolates Bacillus cereus by two fold broth microdilution method; assay type: functional
HaCaT = test: Cytotoxicity against human HaCaT cells incubated for 48 hrs by MTT assay; assay type: toxicity, cell-based; settings: dose < 250 µg/ml
Peritoneal macrophage = test: Cytotoxicity against mouse peritoneal macrophage cells incubated for 48 hrs by MTT assay; assay type: toxicity, cell-based; settings: dose < 250 µg/ml
Vibrio parahaemolyticus [4] = test: Antimicrobial activity against Vibrio parahaemolyticus ATCC17802 by two fold broth microdilution method; assay type: functional
Vibrio parahaemolyticus [5] = test: Induction of morphological changes in Vibrio parahaemolyticus ATCC17802 assessed as massive cell collapse incubated at 5 times MIC and measured after 180 mins by scanning electron microscopy based analysis; assay type: functional, organism-based
Cell membrane = test: Induction of inner membrane permeabilization in Vibrio parahaemolyticus ATCC17802 assessed as increase in PI fluorescence intensity at 5 times MIC by propidium iodide penetration assay; assay type: cell membranes; settings: time <= 200.0 min
Staphylococcus aureus [6] = test: Antimicrobial activity against Staphylococcus aureus ATCC25923 by two fold broth microdilution method; assay type: functional; settings: read-out: MIC
Vibrio parahaemolyticus [7] = test: Bactericidal activity against Vibrio parahaemolyticus ATCC17802 assessed as killing rate at 0.5 X MIC by measuring time limit of detection by bacterial killing kinetic assay; assay type: functional
Vibrio parahaemolyticus [8] = test: Induction of morphological changes in Vibrio parahaemolyticus ATCC17802 assessed as surface fibrosis incubated at 5 times MIC and measured after 180 mins by scanning electron microscopy based analysis; assay type: functional, organism-based
Staphylococcus aureus [9] = test: Bactericidal activity against Staphylococcus aureus ATCC25923 assessed as killing rate at 0.5 X MIC measured upto 180 min by bacterial killing kinetic assay; assay type: functional, organism-based
Escherichia coli [10] = test: Bactericidal activity against Escherichia coli ATCC25722 assessed as killing rate at 0.5 X MIC measured upto 180 min by bacterial killing kinetic assay; assay type: functional, organism-based

| MIC (Escherichia coli [1]) [µg/mL] | MIC (Staphylococcus aureus [2]) [µg/mL] | MIC (Bacillus cereus) [µg/mL] | MIC (Staphylococcus aureus [6]) [µg/mL] | SMILES | Activity (Vibrio parahaemolyticus [3]) | Activity (HaCaT) | Activity (Peritoneal macrophage) | MIC (Vibrio parahaemolyticus [4]) [µg/mL] | Activity (Vibrio parahaemolyticus [5]) | Activity (Cell membrane) | Time (Vibrio parahaemolyticus [7]) [min] | Activity (Vibrio parahaemolyticus [8]) | Activity (Staphylococcus aureus [9]) | Activity (Escherichia coli [10]) |
| --- | --- | --- | --- | --- | --- | --- | --- | --- | --- | --- | --- | --- | --- | --- |
| 9.38 (≈ 4.93 µM) | 18.8 (≈ 9.85 µM) | 9.38 (≈ 4.93 µM) | 4.69 (≈ 2.46 µM) | CC[C@H](C)[C@H](NC(=O)[C@H](C)NC(=O)[C@H](CCCNC(=N)N)NC(=O)[C@H](C)NC(=O)[C@H](CC(C)C)NC(=O)[C@H](CCCCN)NC(=O)[C@H](CCCCN)NC(=O)[C@H](Cc1ccccc1)NC(=O)[C@H](CC(C)C)NC(=O)CNC(=O)[C@H](C)N)C(=O)N[C@@H](CCCCN)C(=O)N[C@@H](CCCCN)C(=O)NCC(=O)N[C@@H](Cc1ccccc1)C(=O)N[C@@H](CCCCN)C(=O)N[C@@H](CCCCN)C(=O)O (H-AGLFKKLARAIKKGFKK-OH) | Active | Dose-Dependent Effect | Dose-Dependent Effect | 4.69 (≈ 2.46 µM) | Active | Active | >180 | Active |  |  |
| 9.38 (≈ 4.35 µM) | 18.8 (≈ 8.69 µM) | 4.69 (≈ 2.17 µM) | 2.34 (≈ 1.08 µM) | CC[C@H](C)[C@H](NC(=O)[C@H](CCCCN)NC(=O)[C@H](CCCCN)NC(=O)[C@H](C)NC(=O)[C@H](CCCCN)NC(=O)[C@H](CCCCN)NC(=O)[C@H](CC(C)C)NC(=O)[C@@H](NC(=O)[C@H](CCCCN)NC(=O)[C@H](CCCCN)NC(=O)[C@H](Cc1c[nH]c2ccccc12)NC(=O)[C@H](Cc1ccccc1)NC(=O)[C@H](CCCCN)NC(=O)[C@H](CCCNC(=N)N)NC(=O)[C@H](CCCNC(=N)N)NC(=O)[C@@H](N)CCCCN)C(C)C)C(=O)N[C@@H](C)C(=O)O (H-KRRKFWKKVLKKAKKIA-OH) |  |  |  | 4.69 (≈ 2.17 µM) |  |  | >180 |  | Active | Active |
| 4.69 (≈ 2.09 µM) | 9.38 (≈ 4.19 µM) | 4.69 (≈ 2.09 µM) | 2.34 (≈ 1.04 µM) | CC[C@H](C)[C@H](NC(=O)[C@H](CCCCN)NC(=O)[C@H](CCCCN)NC(=O)[C@H](CC(C)C)NC(=O)[C@H](CCCCN)NC(=O)[C@H](CCCCN)NC(=O)[C@H](CC(C)C)NC(=O)[C@@H](NC(=O)[C@H](CCCCN)NC(=O)[C@H](CCCCN)NC(=O)[C@H](Cc1c[nH]c2ccccc12)NC(=O)[C@H](Cc1ccccc1)NC(=O)[C@H](CCCCN)NC(=O)[C@H](CCCNC(=N)N)NC(=O)[C@H](CCCNC(=N)N)NC(=O)[C@@H](N)CCCCN)C(C)C)C(=O)N[C@@H](CC(C)C)C(=O)O (H-KRRKFWKKVLKKLKKIL-OH) |  |  |  | 2.34 (≈ 1.04 µM) |  |  | 15 |  | Active | Active |
| 9.38 (≈ 4.58 µM) | 37.5 (≈ 18.3 µM) | 9.38 (≈ 4.58 µM) | 4.69 (≈ 2.29 µM) | CC[C@H](C)[C@H](NC(=O)[C@H](CCCCN)NC(=O)[C@H](CCCNC(=N)N)NC(=O)[C@H](C)NC(=O)[C@H](CC(C)C)NC(=O)[C@H](CCCCN)NC(=O)[C@H](CCCCN)NC(=O)[C@H](Cc1ccccc1)NC(=O)[C@H](CC(C)C)NC(=O)CNC(=O)[C@@H](N)CCCNC(=N)N)C(=O)N[C@@H](CCCCN)C(=O)N[C@@H](CCCCN)C(=O)NCC(=O)N[C@@H](Cc1ccccc1)C(=O)N[C@@H](CCCCN)C(=O)N[C@@H](CCCCN)C(=O)O (H-RGLFKKLARKIKKGFKK-OH) | Active | Dose-Dependent Effect | Dose-Dependent Effect | 4.69 (≈ 2.29 µM) | Active | Active | >180 | Active |  |  |
